Literature values in patent publication US11324821B2, “Triterpene saponin analogues” (ADJUVANCE TECHNOLOGIES, INC., priority 2017, dated 2022).

Conditions: cited from earlier work

Question: With QS-21 as the substance, how does the “tolerated / maximum dose” value (cancer patients, above it local erythema and systemic flu-like symptoms) read?
Answer: Its value is 100 to 150 µg.

Question: What about the maximum dose (in vivo) of the same substance?
Answer: The maximum dose was 50 µg.
